The target of assay [1] is T1, c-Met (cytoplasmic domain) (Homo sapiens, UniProt P08581).
T1 construct: 10 ng/mL c-Met (cytoplasmic domain, Invitrogen Corporation #PV3143); purchased Invitrogen Corporation PV3143
Put plainly: c-Met Kinase Assay (same methods as for ALK, with modifications). In kind it is biochemical. The note with it: 1 μM ATP (Km level); read-out: cMet Activity (c-Met Kinase Inhibition, IC50). The gist of the method:
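Plates were coated with phospholipase C-γ substrate (10 μg/mL) in TBS, and the reaction was started with 10 ng/mL c-Met cytoplasmic domain and run 15 min at 37 °C. Phosphoproduct was detected with Eu-N1-labelled PT66 antibody. IC50 came from a variable-slope sigmoidal fit of percent inhibition vs log concentration.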

The target in assay [2] is T2, baculovirus-expressed ALK (Homo sapiens, UniProt Q9UM73).
T2 construct: host or cells: baculovirus expression system
The assay can be described thus: ALK Kinase Assay (ELISA-type, time-resolved fluorescence). In kind it is biochemical. To be noted: 1 μM ATP (Km level); read-out: ALK Activity (ALK Kinase Inhibition, IC50). In outline:
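Plates coated with phospholipase C-γ substrate (10 μg/mL in TBS); reaction started with 30 ng/ml ALK and run 15 min at 37° C. Phosphorylated substrate detected with Eu-N1-labeled PT66 antibody. IC50 from sigmoidal variable-slope fit of percent inhibition vs log concentration.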

T1 sequence (P08581 956-1390 limits assumed): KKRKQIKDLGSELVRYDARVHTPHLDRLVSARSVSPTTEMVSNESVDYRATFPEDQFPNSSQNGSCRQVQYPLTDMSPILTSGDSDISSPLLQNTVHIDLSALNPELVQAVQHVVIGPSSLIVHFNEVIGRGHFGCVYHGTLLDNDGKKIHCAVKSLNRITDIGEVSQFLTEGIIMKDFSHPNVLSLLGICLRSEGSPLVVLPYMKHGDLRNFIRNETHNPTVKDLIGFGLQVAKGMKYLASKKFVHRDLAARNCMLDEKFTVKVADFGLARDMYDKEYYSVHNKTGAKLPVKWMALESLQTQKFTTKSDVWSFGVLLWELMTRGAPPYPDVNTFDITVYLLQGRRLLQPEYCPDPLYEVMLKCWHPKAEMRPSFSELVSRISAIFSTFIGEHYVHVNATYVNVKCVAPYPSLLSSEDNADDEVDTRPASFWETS
T2 sequence (Q9UM73 19-1620): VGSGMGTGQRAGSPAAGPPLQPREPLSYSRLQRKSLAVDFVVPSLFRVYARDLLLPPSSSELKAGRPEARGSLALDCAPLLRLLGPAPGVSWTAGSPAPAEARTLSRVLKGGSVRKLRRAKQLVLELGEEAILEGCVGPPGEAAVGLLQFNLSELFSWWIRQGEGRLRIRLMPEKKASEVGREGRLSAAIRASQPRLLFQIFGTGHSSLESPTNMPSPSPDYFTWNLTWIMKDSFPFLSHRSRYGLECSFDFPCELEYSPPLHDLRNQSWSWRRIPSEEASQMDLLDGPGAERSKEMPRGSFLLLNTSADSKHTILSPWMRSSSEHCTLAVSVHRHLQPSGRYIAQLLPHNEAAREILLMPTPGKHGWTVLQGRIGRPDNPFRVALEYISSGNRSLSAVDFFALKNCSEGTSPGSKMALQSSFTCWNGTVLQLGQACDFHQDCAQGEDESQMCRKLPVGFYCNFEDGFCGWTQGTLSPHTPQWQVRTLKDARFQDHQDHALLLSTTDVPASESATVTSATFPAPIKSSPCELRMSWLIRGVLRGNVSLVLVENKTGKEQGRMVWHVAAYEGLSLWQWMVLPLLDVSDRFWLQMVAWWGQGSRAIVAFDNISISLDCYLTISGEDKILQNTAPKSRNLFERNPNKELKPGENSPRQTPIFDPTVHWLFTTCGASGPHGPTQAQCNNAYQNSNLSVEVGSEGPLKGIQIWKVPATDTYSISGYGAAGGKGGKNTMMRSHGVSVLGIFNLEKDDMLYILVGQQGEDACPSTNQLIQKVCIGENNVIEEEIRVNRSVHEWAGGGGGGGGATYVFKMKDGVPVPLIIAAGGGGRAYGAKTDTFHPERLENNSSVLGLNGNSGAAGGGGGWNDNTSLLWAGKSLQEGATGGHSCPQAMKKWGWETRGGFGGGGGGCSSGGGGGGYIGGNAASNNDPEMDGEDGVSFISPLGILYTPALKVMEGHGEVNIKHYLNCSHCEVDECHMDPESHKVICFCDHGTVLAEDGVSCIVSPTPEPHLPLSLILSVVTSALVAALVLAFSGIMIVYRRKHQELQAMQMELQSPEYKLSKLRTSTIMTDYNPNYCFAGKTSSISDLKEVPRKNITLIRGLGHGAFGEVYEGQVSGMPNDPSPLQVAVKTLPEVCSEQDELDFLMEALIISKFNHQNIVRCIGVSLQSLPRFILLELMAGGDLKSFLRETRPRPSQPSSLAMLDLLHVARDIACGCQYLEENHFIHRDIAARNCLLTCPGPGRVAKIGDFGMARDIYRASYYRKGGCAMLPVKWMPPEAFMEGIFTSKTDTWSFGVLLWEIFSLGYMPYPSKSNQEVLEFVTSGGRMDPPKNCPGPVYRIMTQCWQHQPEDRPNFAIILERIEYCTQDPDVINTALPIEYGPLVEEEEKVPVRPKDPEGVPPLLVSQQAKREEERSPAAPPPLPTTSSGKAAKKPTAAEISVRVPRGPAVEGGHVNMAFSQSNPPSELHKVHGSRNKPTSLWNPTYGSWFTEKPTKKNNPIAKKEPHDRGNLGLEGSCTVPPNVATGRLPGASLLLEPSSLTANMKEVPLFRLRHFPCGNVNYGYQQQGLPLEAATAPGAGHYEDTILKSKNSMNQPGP

Turning to `COc1ccccc1Nc1nc(Nc2ccc3c(c2)CCC(NCC(F)(F)F)CC3)ncc1Cl` (stereo not drawn) [Example 658, 5-Chloro-N*4*-(2-methoxy-phenyl)-N*2*-[7-(2,2,2-trifluoro-ethylamino)-6,7,8,9-tetrahydro-5H-benzocyclohepten-2-yl]-pyrimidine-2,4-diamine], the results for the IC50 in assay [1] and in assay [2] were above 10000 nM and 100 to 1000 nM, respectively.
In the same order, the values of `COc1cc(N2CCOCC2)ccc1Nc1nc(Nc2ccc3c(c2)CCC(NCC(F)F)CC3)ncc1Cl` (stereo not drawn) [Example 659, 5-Chloro-N*2*-[7-(2,2-difluoro-ethylamino)-6,7,8,9-tetrahydro-5H-benzocyclohepten-2-yl]-N*4*-(2-methoxy-4-morpholin-4-yl-phenyl)-pyrimidine-2,4-diamine] are above 10000 nM and below 100 nM.
In the same order, the values of `CNC(=O)c1ccccc1Nc1nc(Nc2ccc3c(c2)CCC(NCC(F)F)CC3)ncc1Cl` (stereo not drawn) [Example 660, 2-{5-Chloro-2-[7-(2,2-difluoro-ethylamino)-6,7,8,9-tetrahydro-5H-benzocyclohepten-2-ylamino]-pyrimidin-4-ylamino}-N-methyl-benzamide] are below 100 nM and below 100 nM.
Taken in the same sequence, the figures for `Cn1ccnc1-c1ccccc1Nc1nc(Nc2ccc3c(c2)CCC(NCC(F)F)CC3)ncc1Cl` (stereo not drawn) [Example 661, 5-Chloro-N*2*-[7-(2,2-difluoro-ethylamino)-6,7,8,9-tetrahydro-5H-benzocyclohepten-2-yl]-N*4*-[2-(1-methyl-1H-imidazol-2-yl)-phenyl]-pyrimidine-2,4-diamine] were 100 to 1000 nM and 100 to 1000 nM.
On to `CS(=O)(=O)N[C@@H]1CCCC[C@H]1Nc1nc(Nc2ccc3c(c2)CCC(NCC(F)F)CC3)ncc1Cl` (stereo partly drawn) [Example 662, N-((1R,2R)-2-{5-Chloro-2-[7-(2,2-difluoro-ethylamino)-6,7,8,9-tetrahydro-5H-benzocyclohepten-2-ylamino]-pyrimidin-4-ylamino}-cyclohexyl)-methanesulfonamide], for which the IC50 in assay [1] was 100 to 1000 nM; in assay [2] it was below 100 nM.
Taken in the same sequence, the figures for `COc1ccccc1Nc1nc(Nc2ccc3c(c2)CCC(NCC(F)F)CC3)ncc1Cl` (stereo not drawn) [Example 663, 5-Chloro-N*2*-[7-(2,2-difluoro-ethylamino)-6,7,8,9-tetrahydro-5H-benzocyclohepten-2-yl]-N*4*-(2-methoxy-phenyl)-pyrimidine-2,4-diamine] were 1000 to 10000 nM and below 100 nM.
In the same order, the values of `CNC(=O)c1cccc(F)c1Nc1nc(Nc2ccc3c(c2)CCC(NCC(F)F)CC3)ncc1Cl` (stereo not drawn) [Example 664, 2-{5-Chloro-2-[7-(2,2-difluoro-ethylamino)-6,7,8,9-tetrahydro-5H-benzocyclohepten-2-ylamino]-pyrimidin-4-ylamino}-3-fluoro-N-methyl-benzamide] are below 100 nM and below 100 nM.
As for `NC(=O)[C@@H]1[C@H](Nc2nc(Nc3ccc4c(c3)CCC(NCC(F)F)CC4)ncc2Cl)[C@H]2C=C[C@@H]1C2` (stereo partly drawn) [Example 665, (1S,2S,3R,4R)-3-{5-Chloro-2-[7-(2,2-difluoro-ethylamino)-6,7,8,9-tetrahydro-5H-benzocyclohepten-2-ylamino]-pyrimidin-4-ylamino}-bicyclo[2.2.1]hept-5-ene-2-carboxylic acid amide], the IC50 was 100 to 1000 nM in assay [1] and below 100 nM in assay [2].
Turning to `COc1cc(N2CCOCC2)ccc1Nc1nc(Nc2ccc3c(c2)CCCC(=O)N3C(C)C)ncc1Cl` [Example 666, 7-[5-Chloro-4-(2-methoxy-4-morpholin-4-yl-phenylamino)-pyrimidin-2-ylamino]-1-isopropyl-1,3,4,5-tetrahydro-benzo[b]azepin-2-one], the IC50 in assay [1] lay within 1000 to 10000 nM; in assay [2] it was 100 to 1000 nM.
Taken in the same sequence, the figures for `CC(C)N1C(=O)CCCc2cc(Nc3ncc(Cl)c(N[C@@H]4CCCC[C@H]4NS(C)(=O)=O)n3)ccc21` [Example 667, N-{(1R,2R)-2-[5-Chloro-2-(1-isopropyl-2-oxo-2,3,4,5-tetrahydro-1H-benzo[b]azepin-7-ylamino)-pyrimidin-4-ylamino]-cyclohexyl}-methanesulfonamide] were 100 to 1000 nM and below 100 nM.
Consider `CNC(=O)c1cccc(Nc2nc(Nc3ccc4c(c3)CCCC(=O)N4C)ncc2Cl)c1` [Example 668, 3-[5-Chloro-2-(1-methyl-2-oxo-2,3,4,5-tetrahydro-1H-benzo[b]azepin-7-ylamino)-pyrimidin-4-ylamino]-N-methyl-benzamide], for which the IC50 in assay [1] lay within 1000 to 10000 nM; in assay [2] it was 100 to 1000 nM.
In the same order, the values of `CC(C)N1C(=O)CCCc2cc(Nc3ncc(Cl)c(NC4C5C=CC(C5)C4C(N)=O)n3)ccc21` (stereo not drawn) [Example 669, 3-[5-Chloro-2-(1-isopropyl-2-oxo-2,3,4,5-tetrahydro-1H-benzo[b]azepin-7-ylamino)-pyrimidin-4-ylamino]-bicyclo[2.2.1]hept-5-ene-2-carboxylic acid amide] are below 100 nM and below 100 nM.
Taken in the same sequence, the figures for `CNC(=O)c1cccc(Nc2nc(Nc3ccc4c(c3)C(C)(C)CCC(=O)N4C)ncc2Cl)c1` [Example 670, 3-[5-Chloro-2-(1,5,5-trimethyl-2-oxo-2,3,4,5-tetrahydro-1H-benzo[b]azepin-7-ylamino)-pyrimidin-4-ylamino]-N-methyl-benzamide] were 1000 to 10000 nM and below 100 nM.
Taken in the same sequence, the figures for `NC(=O)[C@@H]1[C@H](Nc2nc(Nc3ccc4c(c3)CCC(N3CCOCC3)CC4)ncc2Cl)[C@H]2C=C[C@@H]1C2` (stereo partly drawn) [Example 671, (1S,2S,3R,4R)-3-[5-Chloro-2-(7-morpholin-4-yl-6,7,8,9-tetrahydro-5H-benzocyclohepten-2-ylamino)-pyrimidin-4-ylamino]-bicyclo[2.2.1]hept-5-ene-2-carboxylic acid amide] were below 100 nM and below 100 nM.
As to `CNC(=O)c1cccc(Nc2nc(Nc3ccc4c(c3)C(C)(C)CCC(=O)N4)ncc2Cl)c1` [Example 672, 3-[5-Chloro-2-(5,5-dimethyl-2-oxo-2,3,4,5-tetrahydro-1H-benzo[b]azepin-7-ylamino)-pyrimidin-4-ylamino]-N-methyl-benzamide], the IC50 in assay [1] was 1000 to 10000 nM; in assay [2], 100 to 1000 nM.
In the same order, the values of `CNC(=O)c1cccc(Nc2nc(Nc3ccc4c(c3)CCN(CCOC)CC4)ncc2Cl)c1` [Example 673, 3-{5-Chloro-2-[3-(2-methoxy-ethyl)-2,3,4,5-tetrahydro-1H-benzo[d]azepin-7-ylamino]-pyrimidin-4-ylamino}-N-methyl-benzamide] are 1000 to 10000 nM and 100 to 1000 nM.
In the same order, the values of `COc1cc(N2CCN(C)CC2)ccc1Nc1nc(Nc2ccc3c(c2)CCCC(=O)N3C(C)C)ncc1Cl` [Example 674, 7-{5-Chloro-4-[2-methoxy-4-(4-methyl-piperazin-1-yl)-phenylamino]-pyrimidin-2-ylamino}-1-isopropyl-1,3,4,5-tetrahydro-benzo[b]azepin-2-one] are 1000 to 10000 nM and below 100 nM.
Taken in the same sequence, the figures for `COc1c(Nc2ncc(Cl)c(N[C@H]3[C@@H](C(N)=O)[C@@H]4C=C[C@H]3C4)n2)ccc2c1CCC(NCC(F)(F)F)CC2` (stereo partly drawn) [Example 679, (1S,2S,3R,4R)-3-{5-Chloro-2-[1-methoxy-7-(2,2,2-trifluoro-ethylamino)-6,7,8,9-tetrahydro-5H-benzocyclohepten-2-ylamino]-pyrimidin-4-ylamino}-bicyclo[2.2.1]hept-5-ene-2-carboxylic acid amide] were above 10000 nM and below 100 nM.

For the origin of these results see patent US8148391B2 (Cephalon, Inc., priority 2006, dated 2012).
